Results taken from patent US20230146455A1, “TREATMENT OF INFLAMMATORY DISEASES WITH PEPTIDES AND PHARMACEUTICAL COMPOSITIONS” (Yuyu Pharma, Inc., priority 2020, published 2023).
Values joined by “and” are separate entries in the source; they are usually repeats but may differ in a detail not shown here. Equal values may be shown once. Where a SMILES comes first, the peptide text is derived from it. [ ]: non-standard residue; d: D form. Hyp = O=C(O)[C@@H]1C[C@@H](O)CN1

System: Fas Ligand
Test: Example 9 Luminex, LPS hPBMCs: Fas Ligand
Format: cell-based, human
Details: for Fas Ligand Concentration / Fas Ligand conc/live cell / MFI, bead Fas Ligand: single replicates
Description: Treatment Human PBMCs were pretreated with YY-101, YDE-011 and YDE-043 or reference compound; Xiidra® at various concentration (ranging from 1 nM to 100 uM) for 2 h before stimulation. An equal volume of 0.5% DMSO was used as a vehicle control. Then, the cells were treated with LPS at 5 ug/ml. The supernatants from treated cells were harvested at 24 h and placed in a 96 well for Luminex cytokine & chemokine profiling using a Luminex 200 multiplex assay (Luminex; R&D system, USA).
The main study arm with triplicate wells per group in a 24-well plate: • 1. Blank • 2. PBMC: 0.5% DMSO • 3. PBMC+LPS (5 ug/ml) • 4. PBMC+YY-101 100 uM • 5. PBMC+YY-101 10 uM • 6. PBMC+YY-101 1 uM • 7. PBMC+YY-101 0.1 uM • 8. PBMC+YY-101 0.01 uM • 9. PBMC+LPS (5 ug/ml)+Xiidra®100 uM • 10. PBMC+LPS (5 ug/ml)+Xiidra® 10 uM • 11. PBMC+LPS (5 ug/ml)+Xiidra® 1 uM • 12. PBMC+LPS (5 ug/ml)+Xiidra®0.1 uM • 13. PBMC+LPS (5 ug/ml)+Xiidra®0.01 uM • 14. PBMC+LPS (5 ug/ml)+Xiidra®0.001 uM • 15. PBMC+LPS (5 ug/ml)+YY-101 100 uM • 16. PBMC+LPS (5 ug/ml)+YY-101 10 uM • 17. PBMC+LPS (5 ug/ml)+YY-101 1 uM • 18. PBMC+LPS (5 ug/ml)+YY-101 0.1 uM • 19. PBMC+LPS (5 ug/ml)+YY-101 0.01 uM • 20. PBMC+LPS (5 ug/ml)+YY-101 0.001 uM • 21. PBMC+LPS (5 ug/ml)+YDE-011 100 uM • 22. PBMC+LPS (5 ug/ml)+YDE-011 10 uM • 23. PBMC+LPS (5 ug/ml)+YDE-011 1 uM • 24. PBMC+LPS (5 ug/ml)+YDE-011 0.1 uM • 25. PBMC+LPS (5 ug/ml)+YDE-011 0.01 uM • 26. PBMC+LPS (5 ug/ml)+YDE-011 0.001 uM • 27. PBMC+LPS (5 ug/ml)+YDE-043 100 uM • 28. PBMC+LPS (5 ug/ml)+YDE-043 10 uM • 29. PBMC+LPS (5 ug/ml)+YDE-043 1 uM • 30. PBMC+LPS (5 ug/ml)+YDE-043 0.1 uM • 31. PBMC+LPS (5 ug/ml)+YDE-043 0.01 uM • 32. PBMC+LPS (5 ug/ml)+YDE-043 0.001 uM
Multiplex assay was used to measure 30 cytokines and chemokines. The 1:2, 1:10 and 1:200 diluted cell supernatant and serial dilution of the standard were dispensed into a 96 well plate at 50 ul/well. Then, the pre-mixed cocktail of antibody-coated magnetic beads was dispensed at 50 ul/well and incubated at room temperature for 2 h in a horizontal orbital microplate shaker at 800±500 rpm. The beads were washed using a magnetic device to prevent loss. The biotin-antibody was dispensed in 50 ul of each well and incubated at room temperature for 1 h in a shaker at 800±500 rpm. After washing, streptavidin-PE was added at 50 ul/well and incubated at room temperature for 30 min in a shaker under the same conditions. Finally, after washing, wash buffer (100 ul/well) was added to the plate and incubated in a shaker for 2 min. The Luminex™ 200 setting were set according to the manufacturer's protocol. The data was calculated with a standard five-parameter logistic nonlinear regression analysis of the data (xPonent software 4.2, USA). The levels of cytokine/chemokine are normalized to the live cell counts (1×10^5 cells/mL) and presented as concentrations per mL (pg/mL or ng/mL).

[1] = PBMC + LPS(5 ug/ml) + test article 0.001 uM
[2] = PBMC + LPS(5 ug/ml) + test article 0.01 uM
[3] = PBMC + LPS(5 ug/ml) + test article 0.1 uM
[4] = PBMC + LPS(5 ug/ml) + test article 1 uM
[5] = PBMC + LPS(5 ug/ml) + test article 10 uM
[6] = PBMC + LPS(5 ug/ml) + test article 100 uM

| SMILES | Fas Ligand Concentration, Mean [1] | Fas Ligand conc/live cell, Mean [1] | MFI, bead Fas Ligand, Mean [1] | Fas Ligand Concentration [1] | Fas Ligand conc/live cell [1] | MFI, bead Fas Ligand [1] | Fas Ligand Concentration, Mean [2] | Fas Ligand conc/live cell, Mean [2] | MFI, bead Fas Ligand, Mean [2] | Fas Ligand Concentration [2] | Fas Ligand conc/live cell [2] | MFI, bead Fas Ligand [2] | Fas Ligand Concentration, Mean [3] | Fas Ligand conc/live cell, Mean [3] | MFI, bead Fas Ligand, Mean [3] | Fas Ligand Concentration [3] | Fas Ligand conc/live cell [3] | MFI, bead Fas Ligand [3] | Fas Ligand Concentration, Mean [4] | Fas Ligand conc/live cell, Mean [4] | also measured |
| --- | --- | --- | --- | --- | --- | --- | --- | --- | --- | --- | --- | --- | --- | --- | --- | --- | --- | --- | --- | --- | --- |
| CC(C)C[C@H](NC(=O)CNC(=O)[C@H](CC(C)C)NC(=O)[C@H](CCC(N)=O)NC(=O)CNC(=O)[C@@H]1C[C@@H](O)CN1)C(=O)N[C@@H](C)C(=O)NCC(=O)N1CCC[C@H]1C(=O)N[C@@H](CCCCN)C(=O)O [YDE-011] (H-[Hyp]GQLGLAGPK-OH) | 16.8 pg/mL | 3.2 pg/10^5 | 22.7 | 15.7 pg/mL and 18.4 pg/mL and 16.4 pg/mL | 3.5 pg/10^5 and 3.2 pg/10^5 and 2.8 pg/10^5 | 21.0 and 25.0 and 22.0 | 15.5 pg/mL | 2.7 pg/10^5 | 20.7 | 17.1 pg/mL and 13.7 pg/mL and 15.7 pg/mL | 2.7 pg/10^5 and 2.2 pg/10^5 and 3.1 pg/10^5 | 23.0 and 18.0 and 21.0 | 17.3 pg/mL | 3.0 pg/10^5 | 23.3 | 19.1 pg/mL and 17.7 pg/mL and 15.0 pg/mL | 2.9 pg/10^5 and 3.5 pg/10^5 and 2.6 pg/10^5 | 26.0 and 24.0 and 20.0 | 15.9 pg/mL | 3.2 pg/10^5 | MFI, bead Fas Ligand, Mean [4]: 21.3; Fas Ligand Concentration [4]: 17.4 pg/mL and 15.4 pg/mL and 15.0 pg/mL; Fas Ligand conc/live cell [4]: 3.2 pg/10^5 (2×) and 3.1 pg/10^5; MFI, bead Fas Ligand [4]: 23.5 and 20.5 and 20.0; Fas Ligand Concentration, Mean [5]: 17.3 pg/mL; Fas Ligand conc/live cell, Mean [5]: 3.3 pg/10^5; MFI, bead Fas Ligand, Mean [5]: 23.3; Fas Ligand Concentration [5]: 19.7 pg/mL and 17.7 pg/mL and 14.4 pg/mL; Fas Ligand conc/live cell [5]: 3.7 pg/10^5 and 3.1 pg/10^5 (2×); MFI, bead Fas Ligand [5]: 27.0 and 24.0 and 19.0; Fas Ligand Concentration, Mean [6]: 13.3 pg/mL; Fas Ligand conc/live cell, Mean [6]: 2.2 pg/10^5; MFI, bead Fas Ligand, Mean [6]: 17.3; Fas Ligand Concentration [6]: 11.7 pg/mL and 13.1 pg/mL and 15.0 pg/mL; Fas Ligand conc/live cell [6]: 1.9 pg/10^5 and 2.1 pg/10^5 and 2.5 pg/10^5; MFI, bead Fas Ligand [6]: 15.0 and 17.0 and 20.0 |
| CC(C)C[C@H](NC(=O)[C@H](CCC(N)=O)NC(=O)CNC(=O)[C@@H]1C[C@@H](O)CN1)C(=O)NCC(=O)O [YDE-043] (H-[Hyp]GQLG-OH; N-terminus and C-terminus assumed) | 16.8 pg/mL | 3.4 pg/10^5 | 22.7 | 17.1 pg/mL and 20.4 pg/mL and 13.1 pg/mL | 3.9 pg/10^5 and 3.4 pg/10^5 and 2.8 pg/10^5 | 23.0 and 28.0 and 17.0 | 21.9 pg/mL | 4.3 pg/10^5 | 30.2 | 19.1 pg/mL and 15.7 pg/mL and 31.0 pg/mL | 4.2 pg/10^5 and 2.4 pg/10^5 and 6.2 pg/10^5 | 26.0 and 21.0 and 43.5 | 13.2 pg/mL | 2.5 pg/10^5 | 17.2 | 14.4 pg/mL and 12.7 pg/mL and 12.4 pg/mL | 2.9 pg/10^5 and 2.3 pg/10^5 and 2.2 pg/10^5 | 19.0 and 16.5 and 16.0 | 16.6 pg/mL | 3.2 pg/10^5 | MFI, bead Fas Ligand, Mean [4]: 22.3; Fas Ligand Concentration [4]: 13.7 pg/mL and 15.7 pg/mL and 20.4 pg/mL; Fas Ligand conc/live cell [4]: 2.4 pg/10^5 and 3.3 pg/10^5 and 3.9 pg/10^5; MFI, bead Fas Ligand [4]: 18.0 and 21.0 and 28.0; Fas Ligand Concentration, Mean [5]: 16.4 pg/mL; Fas Ligand conc/live cell, Mean [5]: 3.0 pg/10^5; MFI, bead Fas Ligand, Mean [5]: 22.0; Fas Ligand Concentration [5]: 16.4 pg/mL and 17.1 pg/mL and 15.7 pg/mL; Fas Ligand conc/live cell [5]: 3.2 pg/10^5 (2×) and 2.8 pg/10^5; MFI, bead Fas Ligand [5]: 22.0 and 23.0 and 21.0; Fas Ligand Concentration, Mean [6]: 13.2 pg/mL; Fas Ligand conc/live cell, Mean [6]: 2.1 pg/10^5; MFI, bead Fas Ligand, Mean [6]: 17.3; Fas Ligand Concentration [6]: 15.0 pg/mL and 11.4 pg/mL; Fas Ligand conc/live cell [6]: 2.4 pg/10^5 and 1.8 pg/10^5; MFI, bead Fas Ligand [6]: 20.0 and 14.5 |
